How the values were obtained:
lambsquarters = assay: Test C pre-/postemergence herbicide test; format: in vivo, Chenopodium album; details: Preemergence; for Lambsquarters plant response rating: 31 g ai/ha, scale 0 to 100, 0 is no effect and 100 is complete control
How it was run: (§1)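 Herbicidal effect was judged by eye 13 to 15 days after treatment in the greenhouse, using a 0–100 scale against controls. Chemicals in a non-phytotoxic solvent with surfactant were sprayed onto planted loam/sand soil or onto plants 2 to 18 cm tall in a peat-based growing medium.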

pigweed = assay: Test C pre-/postemergence herbicide test; format: in vivo, Amaranthus retroflexus; details: Preemergence; for Pigweed plant response rating: 31 g ai/ha, scale 0 to 100, 0 is no effect and 100 is complete control
How it was run: as §1

johnsongrass = assay: Test C pre-/postemergence herbicide test; format: in vivo, Sorghum halepense; details: Preemergence; for Johnsongrass plant response rating: 31 g ai/ha, scale 0 to 100, 0 is no effect and 100 is complete control
How it was run: as §1

galium = assay: Test C pre-/postemergence herbicide test; format: in vivo, Galium aparine; details: Preemergence; for Galium plant response rating: 31 g ai/ha
How it was run: as §1

blackgrass = assay: Test C pre-/postemergence herbicide test; format: in vivo, Alopecurus myosuroides; details: Preemergence; for Blackgrass plant response rating: 31 g ai/ha
How it was run: as §1

crabgrass, large = assay: Test C pre-/postemergence herbicide test; format: in vivo, Digitaria sanguinalis; details: Preemergence; for Crabgrass, Large plant response rating: 31 g ai/ha
How it was run: as §1

wheat (winter wheat) = assay: Test C pre-/postemergence herbicide test; format: in vivo, Triticum aestivum; details: Preemergence; for Wheat plant response rating: 31 g ai/ha, scale 0 to 100, 0 is no effect and 100 is complete control
How it was run: as §1

morningglory = assay: Test C pre-/postemergence herbicide test; format: in vivo, Ipomoea coccinea; details: Preemergence; for Morningglory plant response rating: 31 g ai/ha, scale 0 to 100, 0 is no effect and 100 is complete control
How it was run: as §1

wheat = assay: Test A pre-/postemergence herbicide test; format: in vivo, Triticum aestivum; details: for Wheat plant response rating: Preemergence, visual rating on 0 to 100 scale (0 no effect, 100 complete control)
How it was run: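 Both application timings used compounds in a non-phytotoxic solvent plus surfactant. Pre-emergence: soil sprayed directly after seeding into loam/sand. Post-emergence: foliage of 2–10 cm seedlings (1–2 leaves) sprayed. Injury rated ~10 days later, 0–100.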

sedge, umbrella = assay: Test B flooded paddy test; format: in vivo, Cyperus difformis; details: 250 g ai/ha, Flood; scale of 0 to 100 where 0 is no effect and 100 is complete control
How it was run: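 2-leaf plants; flood 3 cm over soil; compound into paddy water; depth held. Greenhouse 13–15 d. Visual rating vs controls, 0 (no effect) to 100 (complete control); dash = not tested.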

[1] = 125 g ai/ha, scale 0 to 100 (0 no effect, 100 complete control)
[2] = scale 0 to 100 (0 no effect, 100 complete control)
[3] = 250 g ai/ha, scale 0 to 100 (0 no effect, 100 complete control)
[4] = Postemergence, 125 g ai/ha, 0 to 100 scale, 0 no effect, 100 complete control
[5] = Postemergence, 500 g ai/ha, 0 to 100 scale (0 no effect, 100 complete control)
[6] = preemergence, 500 g ai/ha, 0 to 100 scale
[7] = scale 0 to 100, 0 is no effect and 100 is complete control

| Compound | Plant response rating, Lambsquarters (lambsquarters; 62 g ai/ha, scale 0 to 100) | Plant response rating, Lambsquarters (lambsquarters; [1]) | Plant response rating, Pigweed (pigweed; 62 g ai/ha, scale 0 to 100) | Plant response rating, Galium (galium; 62 g ai/ha, scale 0 to 100) | Plant response rating, Galium (galium; [1]) | Plant response rating, Galium (galium; [3]) | Plant response rating, Blackgrass (blackgrass; 62 g ai/ha, scale 0 to 100) | Plant response rating, Blackgrass (blackgrass; [1]) | Plant response rating, Blackgrass (blackgrass; [3]) | Plant response rating, Crabgrass, Large (crabgrass, large; 62 g ai/ha, scale 0 to 100) | Plant response rating, Crabgrass, Large (crabgrass, large; [1]) | Plant response rating, Crabgrass, Large (crabgrass, large; [3]) | Plant response rating, Wheat (wheat (winter wheat); 62 g ai/ha, scale 0 to 100) | Plant response rating, Wheat (wheat (winter wheat); [1]) | Plant response rating, Morningglory (morningglory; 62 g ai/ha, scale 0 to 100) | Plant response rating, Morningglory (morningglory; [1]) | Plant response rating, Wheat (wheat; [4]) | Plant response rating, Wheat (wheat; [5]) | Wheat plant response rating (wheat; 125 g ai/ha) | Plant response rating, Wheat (wheat; [6]) | also measured |
| --- | --- | --- | --- | --- | --- | --- | --- | --- | --- | --- | --- | --- | --- | --- | --- | --- | --- | --- | --- | --- | --- |
| O=C1NCC(c2ccc(F)c(Cl)c2)C1C(=O)Nc1cccc(F)c1F (stereo not shown) [Compound 59] | 0 | 0 | 35 | 5 | 30 | 85 | 0 | 30 | 60 | 85 | 90 | 100 | 0 | 0 | 0 | 15 | 0 | 60 | 0 | 0 | Plant response rating, Johnsongrass (johnsongrass; 62 g ai/ha, scale 0 to 100): 0; Plant response rating, Johnsongrass (johnsongrass; [1]): 0; Galium plant response rating (galium; [2]): 0; Blackgrass plant response rating (blackgrass; [2]): 0; Crabgrass, Large plant response rating (crabgrass, large; [2]): 85; Plant response rating, Sedge, Umbrella (sedge, umbrella): 60 |
| O=C1NCC(c2ccc3c(c2)OC(F)(F)O3)C1C(=O)Nc1cccc(F)c1F (stereo not shown) [Compound 62] | 65 | 70 | 40 | 0 | 85 | 90 | 45 | 80 | 80 | 90 | 95 | 98 | 0 | 0 | 10 | 15 | 20 | 60 | 0 | 0 | Plant response rating, Pigweed (pigweed; [1]): 70; Plant response rating, Johnsongrass (johnsongrass; 62 g ai/ha, scale 0 to 100): 10; Plant response rating, Johnsongrass (johnsongrass; [1]): 30; Galium plant response rating (galium; [2]): 0; Blackgrass plant response rating (blackgrass; [2]): 0; Crabgrass, Large plant response rating (crabgrass, large; [2]): 85; Plant response rating, Sedge, Umbrella (sedge, umbrella): 80 |
| O=C1NCC(c2cccc(Br)c2)C1C(=O)Nc1cccc(F)c1F (stereo not shown) [Compound 64] | 10 | 30 | 0 | 0 | 0 | 0 | 5 | 5 | 30 | 90 | 95 | 95 | 5 | 15 | 20 | 20 | 0 | 40 | 0 | 0 | Plant response rating, Pigweed (pigweed; [1]): 30; Plant response rating, Johnsongrass (johnsongrass; 62 g ai/ha, scale 0 to 100): 40; Plant response rating, Johnsongrass (johnsongrass; [1]): 75; Galium plant response rating (galium; [2]): 0; Blackgrass plant response rating (blackgrass; [2]): 0; Crabgrass, Large plant response rating (crabgrass, large; [2]): 85; Plant response rating, Sedge, Umbrella (sedge, umbrella): 40 |
| O=C1NCC(c2cccc(Br)c2)C1C(=O)Nc1ccccc1F (stereo not shown) [Compound 66] | 0 | 0 | 0 | 0 | 0 | 0 | 0 | 0 | 20 | 95 | 98 | 98 | 0 | 5 | 25 | 35 | 0 | 30 | 0 | 20 | Lambsquarters plant response rating (lambsquarters): 0; Pigweed plant response rating (pigweed): 0; Plant response rating, Pigweed (pigweed; [1]): 0; Johnsongrass plant response rating (johnsongrass): 30; Galium plant response rating (galium; [7]): 0; Blackgrass plant response rating (blackgrass; [7]): 0; Crabgrass, Large plant response rating (crabgrass, large; [7]): 90; Wheat plant response rating (wheat (winter wheat)): 0; Morningglory plant response rating (morningglory): 15; Plant response rating, Sedge, Umbrella (sedge, umbrella): 50 |
| O=C1NCC(c2cccc(OC(F)(F)F)c2)C1C(=O)Nc1cccc(F)c1F (stereo not shown) [Compound 68] | 55 | 65 | 75 | 5 | 90 | 90 | 60 | 60 | 80 | 90 | 95 | 95 | 5 | 30 | 0 | 15 | 0 | 20 | 0 | 20 | Lambsquarters plant response rating (lambsquarters): 55; Pigweed plant response rating (pigweed): 45; Plant response rating, Pigweed (pigweed; [1]): 85; Johnsongrass plant response rating (johnsongrass): 0; Plant response rating, Johnsongrass (johnsongrass; 62 g ai/ha, scale 0 to 100): 35; Plant response rating, Johnsongrass (johnsongrass; [1]): 40; Galium plant response rating (galium; [7]): 0; Blackgrass plant response rating (blackgrass; [7]): 0; Crabgrass, Large plant response rating (crabgrass, large; [7]): 90; Wheat plant response rating (wheat (winter wheat)): 0; Morningglory plant response rating (morningglory): 0; Plant response rating, Sedge, Umbrella (sedge, umbrella): 70 |

From patent US10294202B2, “Pyrrolidinones as herbicides” (FMC Corporation, priority 2013, dated 2019)
